Laboratory results as given in patent publication US12103920B2, “Cereblon binding compounds, compositions thereof, and methods of treatment therewith” (Celgene Corporation, priority 2020, dated 2024).
Counter-ions that a name gives are not always drawn.

Target: T1, AR protein in VCaP cells (Homo sapiens, UniProt P10275)
T1 construct: endogenous in cells; host or cells: VCaP cells
T1 sequence (P10275 1-920): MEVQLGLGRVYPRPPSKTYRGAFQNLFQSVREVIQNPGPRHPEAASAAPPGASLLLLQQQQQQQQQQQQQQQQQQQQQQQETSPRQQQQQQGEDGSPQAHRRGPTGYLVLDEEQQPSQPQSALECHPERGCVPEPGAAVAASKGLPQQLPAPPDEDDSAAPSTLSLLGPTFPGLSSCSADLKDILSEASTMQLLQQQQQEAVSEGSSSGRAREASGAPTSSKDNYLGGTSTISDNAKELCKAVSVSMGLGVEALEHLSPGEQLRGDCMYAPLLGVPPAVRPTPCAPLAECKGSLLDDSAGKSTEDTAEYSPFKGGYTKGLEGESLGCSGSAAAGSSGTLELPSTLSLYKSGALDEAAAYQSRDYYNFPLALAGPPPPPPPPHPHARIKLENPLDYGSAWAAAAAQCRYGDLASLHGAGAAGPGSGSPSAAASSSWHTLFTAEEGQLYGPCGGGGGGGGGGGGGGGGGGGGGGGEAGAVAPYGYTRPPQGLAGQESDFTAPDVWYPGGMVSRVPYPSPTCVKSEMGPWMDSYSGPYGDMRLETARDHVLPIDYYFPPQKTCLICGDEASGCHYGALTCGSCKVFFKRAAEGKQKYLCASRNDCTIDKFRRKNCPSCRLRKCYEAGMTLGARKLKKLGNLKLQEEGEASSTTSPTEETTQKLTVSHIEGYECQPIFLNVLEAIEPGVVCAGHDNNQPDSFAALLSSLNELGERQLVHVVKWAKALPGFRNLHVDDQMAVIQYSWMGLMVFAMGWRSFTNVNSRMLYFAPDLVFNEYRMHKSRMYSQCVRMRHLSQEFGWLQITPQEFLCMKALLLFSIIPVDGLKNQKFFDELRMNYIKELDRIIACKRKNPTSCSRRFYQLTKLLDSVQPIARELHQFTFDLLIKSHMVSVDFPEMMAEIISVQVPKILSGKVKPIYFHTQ
Assay: VCAP AR Degradation Assay
Format: cell-based
Details: 24 h, AR ELISA; for DC50: concentration at 50% of DMSO control (50% AR degradation); for Y: lowest measured AR level normalized to DMSO control
Experimental: VCAP AR Degradation Assay. Test compounds were pre-dispensed into a Corning CellBind 96-well clear bottom plate (Cat #3300) using an acoustic dispenser to make a 10-point concentration series at 1:3 dilution for each compound. The final top concentration of each compound was 5 μM. DMSO at a final concentration of 0.1% was used as a control. VCaP cells cultured in DMEM with 8% fetal bovine serum (FBS) were seeded at 50K cells per well in a 200 μL volume into the compound plate and incubated at 37° C. in a CO2 incubator for 24 h. The medium was carefully removed from the cells and the plate was placed on ice. One hundred μL of ice-cold 1× cell lysis buffer from Cell Signaling Technologies (Cat #9803) was added to each well of the cells and the plate was incubated at 4° C. on a shaker for 1 h. Fifteen μL of cell lysate was used for AR ELISA detection using a PathScan Total Sandwich AR ELISA kit (Cell Signaling Technology, Cat #12580). AR levels in compound-treated wells were normalized to that of DMSO control and expressed as percent of control (PoC) (y). A Four Parameter Logistic Model (Sigmoidal Dose-Response Model) was used to determine the compound's DC50, and EC50, using the following equation: y=(A+((B−A)/(1+((C/x)^D)))) • A=YMin (lowest AR level normalized to DMSO control in response to compound treatment, as determined by curve fit) • B=YMax (maximum AR level as determined by curve fit) • C=EC50 • D=Hill Slope • x=compound concentration • EC50=the concentration of compound when y=(YMax−YMin)/2 • DC50=the concentration of the compound when y=50% of DMSO control (50% AR degradation) • y=AR protein level normalized to DMSO control
The lowest measured AR level normalized to DMSO control in response to compound treatment, termed Y value, was used to characterize the compound-mediated AR degradation efficiency.

Row | SMILES | DC50 [nM] | Y
1 | C[C@@H]1CN(CCO[C@H]2CC[C@H](N3C(=S)N(c4ccc(C#N)c(C(F)(F)F)c4)C(=O)C3(C)C)CC2)C[C@H](C)N1CC(=O)Nc1cccc(NC2CCC(=O)NC2=O)c1 (stereo partly drawn) [Cmpd 1, 2-((2R,6S)-4-(2-((trans-4-(3-(4-Cyano-3-(trifluoromethyl)phenyl)-5,5-dimethyl-4-oxo-2-thioxoimidazolidin-1-yl)cyclohexyl)oxy)ethyl)-2,6-dimethylpiperazin-1-yl)-N-(3-((2,6-dioxopiperidin-3-yl)amino)phenyl)acetamide] | 5 to 10 | *** (25%<Y<50%)
2 | C[C@@H]1CN(CCC[C@H]2CC[C@H](N3C(=S)N(c4ccc(C#N)c(C(F)(F)F)c4)C(=O)C3(C)C)CC2)C[C@H](C)N1CC(=O)Nc1cccc(NC2CCC(=O)NC2=O)c1 (stereo partly drawn) [Cmpd 2, 2-((2R,6S)-4-(3-(trans-4-(3-(4-Cyano-3-(trifluoromethyl)phenyl)-5,5-dimethyl-4-oxo-2-thioxoimidazolidin-1-yl)cyclohexyl)propyl)-2,6-dimethylpiperazin-1-yl)-N-(3-((2,6-dioxopiperidin-3-yl)amino)phenyl)acetamide] | 10 to 100 | * (0<Y≤15%)
3 | C[C@@H]1CN(CCO[C@H]2CC[C@H](N3C(=S)N(c4ccc(C#N)c(C(F)(F)F)c4)C(=O)C3(C)C)CC2)C[C@H](C)N1CC(=O)Nc1cccc(N[C@@H]2CCC(=O)NC2=O)c1 [Cmpd 3, 2-((2R,6S)-4-(2-((trans-4-(3-(4-Cyano-3-(trifluoromethyl)phenyl)-5,5-dimethyl-4-oxo-2-thioxoimidazolidin-1-yl)cyclohexyl)oxy)ethyl)-2,6-dimethylpiperazin-1-yl)-N-(3-(((R)-2,6-dioxopiperidin-3-yl)amino)phenyl)acetamide hydrochloride] | 5 to 10 | *** (25%<Y<50%)
4 | C[C@@H]1CN(CCO[C@H]2CC[C@H](N3C(=S)N(c4ccc(C#N)c(Cl)c4)C(=O)C3(C)C)CC2)C[C@H](C)N1CC(=O)Nc1cccc(NC2CCC(=O)NC2=O)c1 (stereo partly drawn) [Cmpd 4, 2-((2R,6S)-4-(2-((trans-4-(3-(3-Chloro-4-cyanophenyl)-5,5-dimethyl-4-oxo-2-thioxoimidazolidin-1-yl)cyclohexyl)oxy)ethyl)-2,6-dimethylpiperazin-1-yl)-N-(3-((2,6-dioxopiperidin-3-yl)amino)phenyl)acetamide hydrochloride] | ≤ 5 | ** (15%<Y≤20%)
5 | C[C@@H]1CN(CCO[C@H]2CC[C@H](N3C(=S)N(c4cnc(C#N)c(C(F)(F)F)c4)C(=O)C3(C)C)CC2)C[C@H](C)N1CC(=O)Nc1cccc(NC2CCC(=O)NC2=O)c1 (stereo partly drawn) [Cmpd 5, 2-((2R,6S)-4-(2-((trans-4-(3-(6-Cyano-5-(trifluoromethyl)pyridin-3-yl)-5,5-dimethyl-4-oxo-2-thioxoimidazolidin-1-yl)cyclohexyl)oxy)ethyl)-2,6-dimethylpiperazin-1-yl)-N-(3-((2,6-dioxopiperidin-3-yl)amino)phenyl)acetamide hydrochloride] | ≤ 5 | *** (25%<Y<50%)
6 | C[C@@H]1CN(CCC[C@H]2CC[C@H](N3C(=S)N(c4ccc(C#N)c(C(F)(F)F)c4)C(=O)C3(C)C)CC2)C[C@H](C)N1CC(=O)Nc1cccc(N[C@@H]2CCC(=O)NC2=O)c1 [Cmpd 6, 2-((2R,6S)-4-(3-(trans-4-(3-(4-Cyano-3-(trifluoromethyl)phenyl)-5,5-dimethyl-4-oxo-2-thioxoimidazolidin-1-yl)cyclohexyl)propyl)-2,6-dimethylpiperazin-1-yl)-N-(3-(((R)-2,6-dioxopiperidin-3-yl)amino)phenyl)acetamide hydrochloride] | 5 to 10 | * (0<Y≤15%)
7 | C[C@@H]1CN(CCO[C@H]2CC[C@H](N3C(=S)N(c4ccc(C#N)c(S(F)(F)(F)(F)F)c4)C(=O)C3(C)C)CC2)C[C@H](C)N1CC(=O)Nc1cccc(NC2CCC(=O)NC2=O)c1 (stereo partly drawn) [Cmpd 7, 2-((2R,6S)-4-(2-((trans-4-(3-(4-Cyano-3-(pentafluoro-λ^6-sulfaneyl)phenyl)-5,5-dimethyl-4-oxo-2-thioxoimidazolidin-1-yl)cyclohexyl)oxy)ethyl)-2,6-dimethylpiperazin-1-yl)-N-(3-((2,6-dioxopiperidin-3-yl)amino)phenyl)acetamide hydrochloride] | 10 to 100 | *** (25%<Y<50%)
8 | C[C@@H]1CN(CCO[C@H]2CC[C@H](N3C(=S)N(c4cnc(C#N)c(Cl)c4)C(=O)C3(C)C)CC2)C[C@H](C)N1CC(=O)Nc1cccc(NC2CCC(=O)NC2=O)c1 (some centres unmarked) [Cmpd 8, hydrochloride] | 5 to 10 | *** (25%<Y<50%)
9 | C[C@@H]1CN(CCCO[C@H]2CC[C@H](N3C(=S)N(c4ccc(C#N)c(Cl)c4)C(=O)C3(C)C)CC2)C[C@H](C)N1CC(=O)Nc1cccc(NC2CCC(=O)NC2=O)c1 (stereo partly drawn) [Cmpd 9, 2-((2R,6S)-4-(3-((trans-4-(3-(3-Chloro-4-cyanophenyl)-5,5-dimethyl-4-oxo-2-thioxoimidazolidin-1-yl)cyclohexyl)oxy)propyl)-2,6-dimethylpiperazin-1-yl)-N-(3-((2,6-dioxopiperidin-3-yl)amino)phenyl)acetamide hydrochloride] | ≤ 5 | *** (25%<Y<50%)
10 | C[C@@H]1CN(CCCO[C@H]2CC[C@H](N3C(=S)N(c4cnc(C#N)c(C(F)(F)F)c4)C(=O)C3(C)C)CC2)C[C@H](C)N1CC(=O)Nc1cccc(NC2CCC(=O)NC2=O)c1 (stereo partly drawn) [Cmpd 10, 2-((2R,6S)-4-(3-((trans-4-(3-(6-Cyano-5-(trifluoromethyl)pyridin-3-yl)-5,5-dimethyl-4-oxo-2-thioxoimidazolidin-1-yl)cyclohexyl)oxy)propyl)-2,6-dimethylpiperazin-1-yl)-N-(3-((2,6-dioxopiperidin-3-yl)amino)phenyl)acetamide hydrochloride] | ≤ 5 | ** (15%<Y≤20%)
11 | C[C@@H]1CN(CCC[C@H]2CC[C@H](N3C(=S)N(c4cnc(C#N)c(C(F)(F)F)c4)C(=O)C3(C)C)CC2)C[C@H](C)N1CC(=O)Nc1cccc(NC2CCC(=O)NC2=O)c1 (stereo partly drawn) [Cmpd 11, 2-((2R,6S)-4-(3-(trans-4-(3-(6-Cyano-5-(trifluoromethyl)pyridin-3-yl)-5,5-dimethyl-4-oxo-2-thioxoimidazolidin-1-yl)cyclohexyl)propyl)-2,6-dimethylpiperazin-1-yl)-N-(3-((2,6-dioxopiperidin-3-yl)amino)phenyl)acetamide hydrochloride] | ≤ 5 | * (0<Y≤15%)
12 | C[C@@H]1CN(CCCO[C@H]2CC[C@H](N3C(=S)N(c4ccc(C#N)c(C(F)(F)F)c4)C(=O)C3(C)C)CC2)C[C@H](C)N1CC(=O)Nc1cccc(NC2CCC(=O)NC2=O)c1 (stereo partly drawn) [Cmpd 12, 2-((2R,6S)-4-(3-((trans-4-(3-(4-Cyano-3-(trifluoromethyl)phenyl)-5,5-dimethyl-4-oxo-2-thioxoimidazolidin-1-yl)cyclohexyl)oxy)propyl)-2,6-dimethylpiperazin-1-yl)-N-(3-((2,6-dioxopiperidin-3-yl)amino)phenyl)acetamide hydrochloride] | 5 to 10 | *** (25%<Y<50%)
13 | C[C@@H]1CN(CCC[C@H]2CC[C@H](N3C(=S)N(c4cnc(C#N)c(Cl)c4)C(=O)C3(C)C)CC2)C[C@H](C)N1CC(=O)Nc1cccc(NC2CCC(=O)NC2=O)c1 (stereo partly drawn) [Cmpd 13, 2-((2R,6S)-4-(3-(trans-4-(3-(5-Chloro-6-cyanopyridin-3-yl)-5,5-dimethyl-4-oxo-2-thioxoimidazolidin-1-yl)cyclohexyl)propyl)-2,6-dimethylpiperazin-1-yl)-N-(3-((2,6-dioxopiperidin-3-yl)amino)phenyl)acetamide hydrochloride] | 5 to 10 | *** (25%<Y<50%)
